Source: paper PMC9694798, “Resveratrol Analogues as Dual Inhibitors of Monoamine Oxidase B and Carbonic Anhydrase VII: A New Multi-Target Combination for Neurodegenerative Diseases?” (Molecules, 2022)
Values joined by “and” are separate entries in the source; they are usually repeats but may differ in a detail not shown here. Equal entries are not always repeated.

How the values were obtained:
Recombinant human MAO-B = target: T1, Recombinant human MAO-B (Homo sapiens, UniProt P27338); test: In vitro MAO-B inhibition assay (kynuramine, fluorescence); type: biochemical; details: kynuramine substrate, mean ± S.D. of three independent experiments
T1 construct: purchased Sigma-Aldrich
T1 sequence (P27338 1-520): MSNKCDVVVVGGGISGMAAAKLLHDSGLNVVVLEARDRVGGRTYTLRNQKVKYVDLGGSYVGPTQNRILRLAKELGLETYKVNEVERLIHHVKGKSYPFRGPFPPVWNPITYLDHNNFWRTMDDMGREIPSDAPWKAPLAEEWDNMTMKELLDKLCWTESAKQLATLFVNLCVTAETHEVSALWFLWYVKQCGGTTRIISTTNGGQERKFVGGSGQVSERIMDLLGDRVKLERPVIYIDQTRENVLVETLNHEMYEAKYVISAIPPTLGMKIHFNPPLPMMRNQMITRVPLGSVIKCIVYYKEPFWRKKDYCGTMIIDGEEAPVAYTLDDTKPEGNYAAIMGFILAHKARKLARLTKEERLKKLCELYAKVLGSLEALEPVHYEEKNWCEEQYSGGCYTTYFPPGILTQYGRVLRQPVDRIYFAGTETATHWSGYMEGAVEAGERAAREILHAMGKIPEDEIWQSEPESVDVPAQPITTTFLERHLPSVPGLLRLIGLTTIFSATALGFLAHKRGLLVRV

hCA VA = target: T2, hCA VA (Homo sapiens, UniProt P35218); test: CA inhibition, stopped-flow CO2 hydration assay; type: biochemical; details: stopped-flow technique; mean of three experiments, errors ±5–10%
T2 construct: His-tag (N); made in house; host or cells: Escherichia coli BL21 (DE3)
T2 sequence (P35218 39-305): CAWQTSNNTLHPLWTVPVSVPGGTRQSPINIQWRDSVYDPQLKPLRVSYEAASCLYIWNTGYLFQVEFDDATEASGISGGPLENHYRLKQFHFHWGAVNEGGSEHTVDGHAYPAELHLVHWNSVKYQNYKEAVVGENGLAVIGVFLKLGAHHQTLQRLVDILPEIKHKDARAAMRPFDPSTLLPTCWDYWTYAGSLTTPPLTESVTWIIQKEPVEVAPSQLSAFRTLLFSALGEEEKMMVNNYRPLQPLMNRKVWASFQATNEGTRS

hCA VII = hCA VII (Homo sapiens, UniProt P43166); test: CA inhibition, stopped-flow CO2 hydration assay
hCA VII, sequence (P43166 whole entry): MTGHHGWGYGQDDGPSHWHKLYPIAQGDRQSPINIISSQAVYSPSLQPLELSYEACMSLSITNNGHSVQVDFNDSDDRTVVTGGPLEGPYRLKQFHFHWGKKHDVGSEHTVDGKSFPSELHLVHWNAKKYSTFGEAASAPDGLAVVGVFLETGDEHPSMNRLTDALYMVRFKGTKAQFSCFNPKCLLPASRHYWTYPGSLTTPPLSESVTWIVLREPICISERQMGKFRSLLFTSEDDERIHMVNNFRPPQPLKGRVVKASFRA

hCA VB = target: T3, hCA VB (Homo sapiens, UniProt Q9Y2D0); test: CA inhibition, stopped-flow CO2 hydration assay; type: biochemical; details: stopped-flow technique; mean of three experiments, errors ±5–10%
T3 construct: His-tag (N); made in house; host or cells: Escherichia coli BL21 (DE3)
T3 sequence (Q9Y2D0 34-317): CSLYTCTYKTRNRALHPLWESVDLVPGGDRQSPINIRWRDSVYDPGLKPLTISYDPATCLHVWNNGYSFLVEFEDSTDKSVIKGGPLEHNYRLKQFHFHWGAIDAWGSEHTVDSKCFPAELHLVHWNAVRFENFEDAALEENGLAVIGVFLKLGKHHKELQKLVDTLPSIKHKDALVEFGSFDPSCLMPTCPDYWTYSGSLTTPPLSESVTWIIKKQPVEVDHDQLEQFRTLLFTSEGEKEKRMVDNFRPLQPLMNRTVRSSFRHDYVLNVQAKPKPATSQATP

hCA IX = target: T4, hCA IX (Homo sapiens, UniProt Q16790); test: CA inhibition, stopped-flow CO2 hydration assay; type: biochemical; details: stopped-flow technique; mean of three experiments, errors ±5–10%
T4 construct: His-tag (N); made in house; host or cells: Escherichia coli BL21 (DE3)

hCA XII = target: T5, hCA XII (Homo sapiens, UniProt O43570); test: CA inhibition, stopped-flow CO2 hydration assay; type: biochemical; details: stopped-flow technique; mean of three experiments, errors ±5–10%
T5 construct: His-tag (N); made in house; host or cells: Escherichia coli BL21 (DE3)
T5 sequence (O43570 25-354): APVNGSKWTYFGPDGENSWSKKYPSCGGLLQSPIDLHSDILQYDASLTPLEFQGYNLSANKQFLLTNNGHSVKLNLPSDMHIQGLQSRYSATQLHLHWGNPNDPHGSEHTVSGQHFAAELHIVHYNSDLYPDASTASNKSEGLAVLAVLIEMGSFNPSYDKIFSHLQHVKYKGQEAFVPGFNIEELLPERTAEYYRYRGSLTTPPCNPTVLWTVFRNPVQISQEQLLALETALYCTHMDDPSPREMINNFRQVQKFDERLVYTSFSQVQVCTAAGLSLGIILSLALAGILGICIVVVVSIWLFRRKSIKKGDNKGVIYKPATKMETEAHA

hCA II = target: T6, hCA II (Homo sapiens, UniProt P00918); test: CA inhibition, stopped-flow CO2 hydration assay; type: biochemical; details: for Ki: stopped-flow technique, mean of three experiments, errors ±5–10%
T6 construct: His-tag (N); made in house; host or cells: Escherichia coli BL21 (DE3)

hCA I = target: T7, hCA I (Homo sapiens, UniProt P00915); test: CA inhibition, stopped-flow CO2 hydration assay; type: biochemical; details: for Ki: stopped-flow technique, mean of three experiments, errors ±5–10%
T7 construct: His-tag (N); made in house; host or cells: Escherichia coli BL21 (DE3)
T7 sequence (P00915 whole entry): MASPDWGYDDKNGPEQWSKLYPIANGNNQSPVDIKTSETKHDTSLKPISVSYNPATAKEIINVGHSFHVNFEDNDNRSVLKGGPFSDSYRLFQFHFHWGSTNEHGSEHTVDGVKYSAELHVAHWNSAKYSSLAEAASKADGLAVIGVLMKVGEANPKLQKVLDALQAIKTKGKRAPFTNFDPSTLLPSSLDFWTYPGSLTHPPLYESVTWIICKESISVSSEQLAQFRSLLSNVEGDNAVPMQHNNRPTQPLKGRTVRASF

Recombinant human MAO-A = target: T8, Recombinant human MAO-A (Homo sapiens, UniProt P21397); test: In vitro MAO-A inhibition assay (kynuramine, fluorescence); type: biochemical; details: kynuramine substrate, mean ± S.D. of three independent experiments
T8 construct: purchased Sigma-Aldrich
T8 sequence (P21397 1-527): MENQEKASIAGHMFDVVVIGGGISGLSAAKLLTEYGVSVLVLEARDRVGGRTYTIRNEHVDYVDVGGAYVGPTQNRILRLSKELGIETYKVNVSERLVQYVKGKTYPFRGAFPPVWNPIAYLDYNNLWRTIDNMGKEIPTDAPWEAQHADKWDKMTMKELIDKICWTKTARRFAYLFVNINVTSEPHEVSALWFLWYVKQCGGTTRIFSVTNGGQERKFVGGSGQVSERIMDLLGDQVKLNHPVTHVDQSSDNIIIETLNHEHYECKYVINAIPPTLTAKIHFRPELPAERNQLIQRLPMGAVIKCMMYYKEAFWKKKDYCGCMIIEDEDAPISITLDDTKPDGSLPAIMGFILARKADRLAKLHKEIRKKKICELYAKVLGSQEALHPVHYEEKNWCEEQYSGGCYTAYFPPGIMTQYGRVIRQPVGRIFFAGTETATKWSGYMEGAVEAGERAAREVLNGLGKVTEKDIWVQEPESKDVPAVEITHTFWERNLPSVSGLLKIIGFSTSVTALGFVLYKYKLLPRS

MAO-B = test system: MAO-B; set-up: method as in PMID 7699569; details: cited from earlier work
MAO = test system: MAO; set-up: method as in PMID 30809547; details: cited from earlier work

Compound | IC50 (Recombinant human MAO-B) [µM] | Ki (hCA VA) [µM] | Ki (hCA VII) [µM] | Ki (hCA VB) [µM] | Ki (hCA IX) [µM] | Ki (hCA XII) [µM] | inhibition potency against hCA II weaker than against hCA VII (hCA II; hCA II vs hCA VII) | Ki (hCA II) [µM] | inhibitory activities against hCA I, VA, and VB lower than against hCA VII (hCA I; hCA I, VA, VB vs hCA VII) | Ki (hCA I) [µM] | IC50 (Recombinant human MAO-A) | IC50 (MAO-B) [µM] | mechanism of MAO inhibition (MAO)
Oc1ccc(/C=C/c2ccc(C(F)(F)F)cc2)cc1Cl [Compound 4] | 0.011 ± 0.0065 | 70.9 | 0.7 | 36.2 | 17.4 | 6.9 | about 22 fold | 15.6 | up to 120 fold | 86.8 | 0.43 µM and 0.433 µM | – | –
N#Cc1ccc(/C=C/c2ccc(O)cc2)cc1 [Compound 6] | 0.103 ± 0.003 | > 100 | 7.4 | 9.5 | > 100 | > 100 | – | 75.3 | – | > 100 | 2.01 ± 0.033 µM | – | –
Oc1ccc(C=Cc2cc(O)cc(O)c2)cc1 [RSV, 3,4′,5-trihydroxystilbene, reference compound] | > 100 | 4.7 | 4.3 | 4.6 | 0.8 | 0.9 | – | 2.8 | – | 2.2 | – | – | competitive
Oc1ccc(/C=C/c2ccc(Cl)cc2Cl)cc1 [Compound 3] | 1.52 ± 0.067 | 86 | 7.5 | > 100 | > 100 | > 100 | – | > 100 | – | > 100 | 1.79 ± 0.095 µM | – | –
Oc1ccc(/C=C/c2ccc(Cl)cc2Cl)cc1Cl [Compound 2] | 1.44 ± 0.035 | 37.2 | 4.2 | 32.2 | 81.1 | 4.5 | – | > 100 | – | > 100 | 2.02 ± 0.175 µM | – | –
Oc1ccc(/C=C/c2ccccc2)cc1Cl [Compound 1] | 0.156 ± 0.009 | 9 | > 100 | 84.5 | 23.6 | 2.7 | – | 35.8 | – | 89.5 | 3.06 ± 0.1 µM | – | –
COc1ccc(/C=C/c2ccc(O)cc2)cc1 [Compound 7] | 0.185 ± 0.009 | > 100 | 9.4 | 9.7 | 81.8 | > 100 | – | > 100 | – | > 100 | 2.71 ± 0.016 µM | – | –
Oc1ccc(/C=C/c2ccc(C(F)(F)F)cc2)cc1 [Compound 5] | 14.2 ± 1.82 | 83 | > 100 | 8.7 | 94.6 | > 100 | – | 43.4 | – | > 100 | 9.77 ± 0.553 µM | – | –
